Measurements from ChEMBL document CHEMBL3217428, “Synthesis and evaluation of novel 5-sulfonyl-indolin-2-ones as potent cytotoxic agents” (Medchemcomm, 2011).
Active and inactive are the calls of the source. The calls are words filed in the database; no cut-off is given here.

Key:
[1] = Cytotoxicity against human ECA109 cells; assay type: functional, cell-based; conditions: ECa-109
[2] = test system: HCT-116; experiment: Cytotoxicity against human HCT116 cells; assay type: functional, cell-based
[3] = test system: A549; experiment: Cytotoxicity against human A549 cells; assay type: functional, cell-based
[4] = Cytotoxicity against human SGC7901 cells; assay type: functional, cell-based; conditions: SGC-7901
[5] = molecular target: Fibroblast growth factor receptor 2 (Homo sapiens) (UniProt P21802); experiment: Inhibition of FGFR2 (unknown origin) at 50 uM
[6] = test system: HUVEC; experiment: Antiangiogenic activity in HUVEC assessed as reduction in tube formation by matrigel assay; assay type: functional, cell-based; conditions: Homo sapiens
[7] = test system: HUVEC; experiment: Antiangiogenic activity in HUVEC assessed as reduction in anastomoses formation by matrigel assay; assay type: functional, cell-based; conditions: Homo sapiens
[8] = test system: A549; experiment: Induction of apoptosis in human A549 cells at 5 uM after 72 hrs by flow cytometry; assay type: functional
[9] = test system: A549; experiment: Induction of apoptosis in human A549 cells assessed as DNA fragmentation at 1.25 to 5 uM after 72 hrs by flow cytometry; assay type: functional, cell-based
[10] = test system: HUVEC; experiment: Antimigratory activity in HUVEC at 2 uM; assay type: functional, cell-based; conditions: Homo sapiens
[11] = test system: A549; experiment: Cell cycle arrest in human A549 cells assessed as accumulation at sub-G0/G1 phase at 5 uM after 72 hrs by flow cytometry; assay type: functional
[12] = test system: A549; experiment: Induction of apoptosis in human A549 cells assessed as hypodiploid DNA at 5 uM after 72 hrs by flow cytometry; assay type: functional, cell-based

Fibroblast growth factor receptor 2 (Homo sapiens), sequence (P21802 22-821 limits assumed): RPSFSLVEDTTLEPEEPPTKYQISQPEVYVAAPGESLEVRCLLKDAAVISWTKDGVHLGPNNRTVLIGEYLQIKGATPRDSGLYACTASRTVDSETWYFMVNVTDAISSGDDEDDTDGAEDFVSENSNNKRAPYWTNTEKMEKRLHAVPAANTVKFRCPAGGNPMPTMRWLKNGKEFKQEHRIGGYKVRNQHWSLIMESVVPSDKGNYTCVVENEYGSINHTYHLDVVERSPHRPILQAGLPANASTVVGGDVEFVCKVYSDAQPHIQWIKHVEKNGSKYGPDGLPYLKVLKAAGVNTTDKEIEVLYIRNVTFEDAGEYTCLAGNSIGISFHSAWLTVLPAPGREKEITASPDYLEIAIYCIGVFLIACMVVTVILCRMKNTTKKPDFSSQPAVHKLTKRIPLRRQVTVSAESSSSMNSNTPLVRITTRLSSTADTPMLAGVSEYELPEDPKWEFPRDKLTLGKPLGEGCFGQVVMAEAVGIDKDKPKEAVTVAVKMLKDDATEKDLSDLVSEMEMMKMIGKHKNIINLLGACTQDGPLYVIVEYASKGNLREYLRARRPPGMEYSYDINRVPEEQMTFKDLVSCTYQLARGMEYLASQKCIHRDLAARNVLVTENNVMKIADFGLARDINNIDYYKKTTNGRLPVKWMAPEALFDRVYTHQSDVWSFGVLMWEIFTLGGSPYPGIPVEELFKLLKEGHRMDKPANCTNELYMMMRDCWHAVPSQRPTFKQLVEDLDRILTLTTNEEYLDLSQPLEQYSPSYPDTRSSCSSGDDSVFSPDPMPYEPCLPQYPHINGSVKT

Row | Compound | IC50 [1] [µM] | IC50 [2] [µM] | IC50 [3] [µM] | IC50 [4] [µM] | inhibition [5] [%] | Activity [6] | Activity [7] | Activity [8] [%] | Activity [9] | Activity [10] | Activity [11] [%] | inhibition [3] | Activity [12]
1 | Cc1[nH]c(/C=C2\C(=O)Nc3ccc(/C=C/S(=O)(=O)c4ccc(F)cc4)cc32)c(C)c1C(=O)NCCN(C)C | 2.99 | 7.2 | 6.62 | 6.25 |  |  |  |  |  |  |  |  | 
2 | CCN(CC)CCNC(=O)c1c(C)[nH]c(/C=C2\C(=O)Nc3ccc(/C=C/S(C)(=O)=O)cc32)c1C | 12.5 | 2.64 | 29.1 | 16.7 |  |  |  |  |  |  |  |  | 
3 | CCN(CC)CCNC(=O)c1c(C)[nH]c(/C=C2\C(=O)Nc3ccc(S(=O)(=O)/C=C/c4ccc(Cl)cc4)cc32)c1C | 4.84 | 1.95 | 2.85 | 2.58 | 72 |  |  |  |  |  |  |  | 
4 | CCN(CC)CCNC(=O)c1c(C)[nH]c(/C=C2\C(=O)Nc3ccc(S(=O)(=O)/C=C/c4ccccc4)cc32)c1C | 1.37 | 2.41 | 2.87 | 4.99 |  |  |  |  |  |  |  |  | 
5 | CCN(CC)CCNC(=O)c1c(C)[nH]c(/C=C2\C(=O)Nc3ccc(/C=C/S(=O)(=O)c4ccccc4)cc32)c1C | 2.7 | 6.44 | 6.86 | 5.82 |  |  |  |  |  |  |  |  | 
6 | CCN(CC)CCNC(=O)c1c(C)[nH]c(/C=C2\C(=O)Nc3ccc(F)cc32)c1C [SUNITINIB] | 16.9 | 2.11 | 18.6 | 18.6 | 61.8 | Dose-dependent effect | Dose-dependent effect | 15.81 |  |  |  |  | 
7 | CCN(CC)CCNC(=O)c1c(C)[nH]c(/C=C2\C(=O)Nc3ccc(/C=C/S(=O)(=O)Cc4ccccc4)cc32)c1C | 10.6 | 13.7 | 8.05 | 14.5 |  |  |  |  |  |  |  |  | 
8 | CCN(CC)CCNC(=O)c1c(C)[nH]c(/C=C2\C(=O)Nc3ccc(/C=C/S(=O)(=O)Cc4ccc(F)cc4)cc32)c1C | > 12.5 | > 12.5 | > 12.5 | > 12.5 |  |  |  |  |  |  |  |  | 
9 | Cc1[nH]c(/C=C2\C(=O)Nc3ccc(/C=C/S(=O)(=O)c4ccc(F)cc4)cc32)c(C)c1C(=O)NCCCN(C)C | 2.87 | 9.84 | > 12.5 | 6.35 |  |  |  |  |  |  |  |  | 
10 | CCN(CC)CCNC(=O)c1c(C)[nH]c(/C=C2\C(=O)Nc3ccc(/C=C/S(=O)(=O)Cc4cccc(F)c4)cc32)c1C | 7.33 | 12.7 | 8.41 | 11.1 |  |  |  |  |  |  |  |  | 
11 | CCN(CC)CCCNC(=O)c1c(C)[nH]c(/C=C2\C(=O)Nc3ccc(/C=C/S(=O)(=O)c4ccc(F)cc4)cc32)c1C | 4.75 | 5.77 | > 12.5 | 3.45 |  |  |  |  |  |  |  |  | 
12 | O=c1c(O)c(-c2ccc(O)c(O)c2)oc2cc(O)cc(O)c12 |  |  |  |  | 67.3 |  |  |  |  |  |  |  | 
13 | CCN(CC)CCNC(=O)c1c(C)[nH]c(/C=C2\C(=O)Nc3ccc(/C=C/S(=O)(=O)c4ccc(F)cc4)cc32)c1C | 5.74 | 1.82 |  | 6.87 | 76.6 | Dose-dependent effect | Dose-dependent effect |  | Active | Active | 68.21 | Dose-dependent effect | Active
14 | CCN(CC)CCNC(=O)c1c(C)[nH]c(/C=C2\C(=O)Nc3ccc(/C=C/S(=O)(=O)c4ccc(Br)cc4)cc32)c1C | 6.23 | 3.35 | 5.21 | 2.28 | 67.8 |  |  |  |  |  |  |  | 
15 | CCN(CC)CCNC(=O)c1c(C)[nH]c(/C=C2\C(=O)Nc3ccc(/C=C/S(=O)(=O)Cc4ccc(Cl)cc4)cc32)c1C | > 25 | > 25 | > 25.3 | > 25 |  |  |  |  |  |  |  |  | 
